Parameters in all cases: scale not given: the % may be the effect or the level left
The target of test [1] is Bone morphogenetic protein receptor type-1B (Homo sapiens) (UniProt O00238). Nature of the test: Inhibition of human ALK6 assessed as enzyme activity at 1 uM using casein as substrate preincubated for 20 mins followed by [gamma-33P]-ATP addition and measured after 120 mins by radiometric Hot-SpotSM Kinase assay relative to control.
The species named for test [2] is Homo sapiens. Nature of the test: Inhibition of human CDK2/cyclin A assessed as enzyme activity at 1 uM using RB Protein as substrate preincubated for 20 mins followed by [gamma-33P]-ATP addition and measured after 120 mins by radiometric Hot-SpotSM Kinase assay relative to control.
Test [3] has as its target Casein kinase I isoform delta (Homo sapiens) (UniProt P48730). Nature of the test: Inhibition of human CK1delta assessed as enzyme activity at 1 uM using KRRRAL[pS]VASLPGL as substrate preincubated for 20 mins followed by [gamma-33P]-ATP addition and measured after 120 mins by radiometric Hot-SpotSM Kinase assay relative to control.
The target of test [4] is Serine/threonine-protein kinase MRCK gamma (Homo sapiens) (UniProt Q6DT37). Nature of the test: Inhibition of human DMPK2 assessed as enzyme activity at 1 uM using KKRPQRRYSNVF as substrate preincubated for 20 mins followed by [gamma-33P]-ATP addition and measured after 120 mins by radiometric Hot-SpotSM Kinase assay relative to control.
Test [5] concerns the target Fibroblast growth factor receptor 2 (Homo sapiens) (UniProt P21802). Nature of the test: Inhibition of human FGFR2 assessed as enzyme activity at 1 uM using poly[Glu:Tyr] (4:1) as substrate preincubated for 20 mins followed by [gamma-33P]-ATP addition and measured after 120 mins by radiometric Hot-SpotSM Kinase assay relative to control.
The target in test [6] is Mitogen-activated protein kinase kinase kinase kinase 4 (Homo sapiens) (UniProt O95819). Nature of the test: Inhibition of human HGK assessed as enzyme activity at 1 uM using myelin basic protein as substrate preincubated for 20 mins followed by [gamma-33P]-ATP addition and measured after 120 mins by radiometric Hot-SpotSM Kinase assay relative to control.
For test [7], the target named is Homeodomain-interacting protein kinase 1 (Homo sapiens) (UniProt Q86Z02). Nature of the test: Inhibition of human HIPK1 assessed as enzyme activity at 1 uM using myelin basic protein as substrate preincubated for 20 mins followed by [gamma-33P]-ATP addition and measured after 120 mins by radiometric Hot-SpotSM Kinase assay relative to control.
The target of test [8] is MAP kinase-activated protein kinase 2 (Homo sapiens) (UniProt P49137). Nature of the test: Inhibition of human MAPKAPK2 assessed as enzyme activity at 1 uM using KKLNRTLSVA as substrate preincubated for 20 mins followed by [gamma-33P]-ATP addition and measured after 120 mins by radiometric Hot-SpotSM Kinase assay relative to control.
Test [9] deals with T1, Serine/threonine-protein kinase Nek11 (Homo sapiens) (UniProt Q8NG66).
T1 sequence (whole entry): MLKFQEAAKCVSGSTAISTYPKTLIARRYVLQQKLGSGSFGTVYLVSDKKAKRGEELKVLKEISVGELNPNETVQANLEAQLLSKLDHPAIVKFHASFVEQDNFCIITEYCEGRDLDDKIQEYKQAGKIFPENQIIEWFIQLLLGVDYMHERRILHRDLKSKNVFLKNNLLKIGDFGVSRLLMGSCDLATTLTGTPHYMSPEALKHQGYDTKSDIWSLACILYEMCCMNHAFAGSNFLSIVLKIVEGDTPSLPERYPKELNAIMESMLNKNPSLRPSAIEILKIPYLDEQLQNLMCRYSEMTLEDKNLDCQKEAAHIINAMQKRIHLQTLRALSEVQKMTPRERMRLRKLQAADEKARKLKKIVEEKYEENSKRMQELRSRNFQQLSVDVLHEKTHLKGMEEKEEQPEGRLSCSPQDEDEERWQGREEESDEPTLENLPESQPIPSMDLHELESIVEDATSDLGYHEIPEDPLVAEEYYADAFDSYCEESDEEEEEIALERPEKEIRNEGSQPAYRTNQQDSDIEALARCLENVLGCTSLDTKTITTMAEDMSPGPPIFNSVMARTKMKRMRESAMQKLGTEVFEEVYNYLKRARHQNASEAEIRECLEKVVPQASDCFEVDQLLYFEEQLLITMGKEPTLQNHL
Nature of the test: Inhibition of human NEK11 assessed as enzyme activity at 1 uM using myelin basic protein as substrate preincubated for 20 mins followed by [gamma-33P]-ATP addition and measured after 120 mins by radiometric Hot-SpotSM Kinase assay relative to control.

The target of test [10] is Serine/threonine-protein kinase Nek4 (Homo sapiens) (UniProt P51957). Nature of the test: Inhibition of human NEK4 assessed as enzyme activity at 1 uM using myelin basic protein as substrate preincubated for 20 mins followed by [gamma-33P]-ATP addition and measured after 120 mins by radiometric Hot-SpotSM Kinase assay relative to control.
The species named for test [11] is Homo sapiens. Nature of the test: Inhibition of human PKA assessed as enzyme activity at 1 uM using LCGRTGRRNSI as substrate preincubated for 20 mins followed by [gamma-33P]-ATP addition and measured after 120 mins by radiometric Hot-SpotSM Kinase assay relative to control.
In test [12] the target is Serine/threonine-protein kinase 16 (Homo sapiens) (UniProt O75716). Nature of the test: Inhibition of human STK16 assessed as enzyme activity at 1 uM using myelin basic protein as substrate preincubated for 20 mins followed by [gamma-33P]-ATP addition and measured after 120 mins by radiometric Hot-SpotSM Kinase assay relative to control.
For test [13], the target named is Serine/threonine-protein kinase 32B (Homo sapiens) (UniProt Q9NY57). Nature of the test: Inhibition of human STK32B assessed as enzyme activity at 1 uM using myelin basic protein as substrate preincubated for 20 mins followed by [gamma-33P]-ATP addition and measured after 120 mins by radiometric Hot-SpotSM Kinase assay relative to control.
For test [14], the target named is Tyrosine-protein kinase SYK (Homo sapiens) (UniProt P43405). Nature of the test: Inhibition of human SYK assessed as enzyme activity at 1 uM using poly[Glu:Tyr] (4:1) as substrate preincubated for 20 mins followed by [gamma-33P]-ATP addition and measured after 120 mins by radiometric Hot-SpotSM Kinase assay relative to control.
Test [15] deals with Death-associated protein kinase 3 (Homo sapiens) (UniProt O43293). Nature of the test: Inhibition of human ZIPK assessed as enzyme activity at 1 uM using KKLNRTLSFAEPG as substrate preincubated for 20 mins followed by [gamma-33P]-ATP addition and measured after 120 mins by radiometric Hot-SpotSM Kinase assay relative to control.
Death-associated protein kinase 3 (Homo sapiens), sequence (O43293 whole entry, looked up): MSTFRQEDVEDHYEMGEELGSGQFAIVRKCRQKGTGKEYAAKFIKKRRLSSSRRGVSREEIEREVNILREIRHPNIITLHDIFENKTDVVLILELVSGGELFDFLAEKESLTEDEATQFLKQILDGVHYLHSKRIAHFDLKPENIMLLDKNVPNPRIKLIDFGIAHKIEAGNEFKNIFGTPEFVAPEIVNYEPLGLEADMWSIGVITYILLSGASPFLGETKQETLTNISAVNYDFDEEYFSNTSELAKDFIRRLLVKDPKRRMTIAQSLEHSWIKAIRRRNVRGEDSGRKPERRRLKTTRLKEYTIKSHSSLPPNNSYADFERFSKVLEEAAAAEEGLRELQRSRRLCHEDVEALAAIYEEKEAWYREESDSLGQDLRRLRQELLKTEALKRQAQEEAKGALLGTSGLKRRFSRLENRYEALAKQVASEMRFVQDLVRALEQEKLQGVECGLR

Bone morphogenetic protein receptor type-1B (Homo sapiens), sequence (O00238 whole entry): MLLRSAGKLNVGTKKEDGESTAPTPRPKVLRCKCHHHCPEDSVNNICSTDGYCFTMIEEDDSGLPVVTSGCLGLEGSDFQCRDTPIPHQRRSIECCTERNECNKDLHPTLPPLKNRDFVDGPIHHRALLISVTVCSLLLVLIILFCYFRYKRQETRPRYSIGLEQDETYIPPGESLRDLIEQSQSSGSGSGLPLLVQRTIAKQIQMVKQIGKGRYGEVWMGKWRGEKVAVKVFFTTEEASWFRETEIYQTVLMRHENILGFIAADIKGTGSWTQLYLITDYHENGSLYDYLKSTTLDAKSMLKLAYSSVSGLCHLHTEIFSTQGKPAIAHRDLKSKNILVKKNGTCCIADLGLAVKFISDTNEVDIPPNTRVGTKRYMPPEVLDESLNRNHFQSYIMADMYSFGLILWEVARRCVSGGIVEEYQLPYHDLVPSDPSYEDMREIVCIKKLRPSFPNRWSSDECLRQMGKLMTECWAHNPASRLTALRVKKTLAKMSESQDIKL
Casein kinase I isoform delta (Homo sapiens), sequence (P48730 whole entry, looked up, canonical isoform): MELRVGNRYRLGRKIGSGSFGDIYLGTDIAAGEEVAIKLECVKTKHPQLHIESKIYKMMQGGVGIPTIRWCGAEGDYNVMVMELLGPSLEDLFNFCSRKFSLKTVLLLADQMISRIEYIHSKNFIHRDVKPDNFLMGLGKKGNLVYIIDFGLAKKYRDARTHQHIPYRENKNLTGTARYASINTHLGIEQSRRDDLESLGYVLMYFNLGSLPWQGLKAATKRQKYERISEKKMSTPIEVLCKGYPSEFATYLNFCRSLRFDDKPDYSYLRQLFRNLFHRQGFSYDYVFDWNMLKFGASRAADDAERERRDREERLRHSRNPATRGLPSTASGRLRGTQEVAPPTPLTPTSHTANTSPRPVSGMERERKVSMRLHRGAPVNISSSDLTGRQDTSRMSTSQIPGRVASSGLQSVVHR
Serine/threonine-protein kinase 32B (Homo sapiens), sequence (Q9NY57 whole entry): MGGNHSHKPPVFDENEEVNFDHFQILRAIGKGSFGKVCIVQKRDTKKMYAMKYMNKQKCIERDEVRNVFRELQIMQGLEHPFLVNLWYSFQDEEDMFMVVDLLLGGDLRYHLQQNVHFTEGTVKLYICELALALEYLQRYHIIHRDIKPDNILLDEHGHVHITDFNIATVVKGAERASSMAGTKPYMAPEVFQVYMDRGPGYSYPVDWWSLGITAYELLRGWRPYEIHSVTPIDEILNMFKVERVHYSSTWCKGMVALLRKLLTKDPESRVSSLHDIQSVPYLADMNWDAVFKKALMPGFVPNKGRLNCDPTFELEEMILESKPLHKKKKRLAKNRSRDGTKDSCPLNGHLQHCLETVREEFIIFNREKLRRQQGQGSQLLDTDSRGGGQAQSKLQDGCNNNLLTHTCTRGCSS
Serine/threonine-protein kinase 16 (Homo sapiens), sequence (O75716 whole entry): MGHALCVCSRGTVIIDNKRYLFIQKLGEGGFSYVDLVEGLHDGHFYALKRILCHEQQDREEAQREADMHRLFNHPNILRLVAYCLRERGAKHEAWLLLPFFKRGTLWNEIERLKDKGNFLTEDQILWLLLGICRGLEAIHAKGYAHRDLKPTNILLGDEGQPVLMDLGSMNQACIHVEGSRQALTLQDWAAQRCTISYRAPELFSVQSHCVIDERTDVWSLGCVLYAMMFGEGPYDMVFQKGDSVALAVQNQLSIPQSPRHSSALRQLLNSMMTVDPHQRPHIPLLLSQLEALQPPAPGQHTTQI
Homeodomain-interacting protein kinase 1 (Homo sapiens), sequence (Q86Z02 whole entry, looked up): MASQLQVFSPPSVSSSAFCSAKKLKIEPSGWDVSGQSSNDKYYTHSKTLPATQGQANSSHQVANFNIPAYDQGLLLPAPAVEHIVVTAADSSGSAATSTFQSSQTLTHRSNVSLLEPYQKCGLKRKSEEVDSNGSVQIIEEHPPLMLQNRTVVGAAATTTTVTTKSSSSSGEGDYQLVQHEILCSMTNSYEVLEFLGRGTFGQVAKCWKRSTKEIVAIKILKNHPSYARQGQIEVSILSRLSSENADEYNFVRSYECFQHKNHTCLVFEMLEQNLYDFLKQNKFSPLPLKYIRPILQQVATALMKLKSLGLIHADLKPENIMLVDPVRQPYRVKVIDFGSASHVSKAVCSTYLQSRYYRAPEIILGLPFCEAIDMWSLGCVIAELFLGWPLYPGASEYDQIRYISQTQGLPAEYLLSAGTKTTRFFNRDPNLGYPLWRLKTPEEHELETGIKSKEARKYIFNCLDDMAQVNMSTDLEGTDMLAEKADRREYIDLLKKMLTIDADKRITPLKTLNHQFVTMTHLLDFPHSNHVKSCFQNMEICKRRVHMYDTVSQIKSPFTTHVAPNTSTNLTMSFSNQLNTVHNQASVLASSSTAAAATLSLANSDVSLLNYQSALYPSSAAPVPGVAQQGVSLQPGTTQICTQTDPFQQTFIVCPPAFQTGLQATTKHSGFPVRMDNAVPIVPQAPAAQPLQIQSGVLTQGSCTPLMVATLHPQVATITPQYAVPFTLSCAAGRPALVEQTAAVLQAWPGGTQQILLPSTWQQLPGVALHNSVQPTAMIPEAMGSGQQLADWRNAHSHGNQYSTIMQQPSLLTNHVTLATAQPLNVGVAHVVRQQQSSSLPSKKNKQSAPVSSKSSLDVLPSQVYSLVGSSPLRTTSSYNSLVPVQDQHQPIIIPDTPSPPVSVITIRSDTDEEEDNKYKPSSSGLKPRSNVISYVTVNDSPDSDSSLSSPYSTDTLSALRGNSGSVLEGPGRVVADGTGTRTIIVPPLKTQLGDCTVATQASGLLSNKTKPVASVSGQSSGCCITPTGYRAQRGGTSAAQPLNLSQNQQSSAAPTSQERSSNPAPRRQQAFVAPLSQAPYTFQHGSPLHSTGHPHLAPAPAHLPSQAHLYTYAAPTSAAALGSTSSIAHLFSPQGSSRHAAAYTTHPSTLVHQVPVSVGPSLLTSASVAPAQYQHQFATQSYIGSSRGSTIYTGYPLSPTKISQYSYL
Fibroblast growth factor receptor 2 (Homo sapiens), sequence (P21802 22-821 limits assumed): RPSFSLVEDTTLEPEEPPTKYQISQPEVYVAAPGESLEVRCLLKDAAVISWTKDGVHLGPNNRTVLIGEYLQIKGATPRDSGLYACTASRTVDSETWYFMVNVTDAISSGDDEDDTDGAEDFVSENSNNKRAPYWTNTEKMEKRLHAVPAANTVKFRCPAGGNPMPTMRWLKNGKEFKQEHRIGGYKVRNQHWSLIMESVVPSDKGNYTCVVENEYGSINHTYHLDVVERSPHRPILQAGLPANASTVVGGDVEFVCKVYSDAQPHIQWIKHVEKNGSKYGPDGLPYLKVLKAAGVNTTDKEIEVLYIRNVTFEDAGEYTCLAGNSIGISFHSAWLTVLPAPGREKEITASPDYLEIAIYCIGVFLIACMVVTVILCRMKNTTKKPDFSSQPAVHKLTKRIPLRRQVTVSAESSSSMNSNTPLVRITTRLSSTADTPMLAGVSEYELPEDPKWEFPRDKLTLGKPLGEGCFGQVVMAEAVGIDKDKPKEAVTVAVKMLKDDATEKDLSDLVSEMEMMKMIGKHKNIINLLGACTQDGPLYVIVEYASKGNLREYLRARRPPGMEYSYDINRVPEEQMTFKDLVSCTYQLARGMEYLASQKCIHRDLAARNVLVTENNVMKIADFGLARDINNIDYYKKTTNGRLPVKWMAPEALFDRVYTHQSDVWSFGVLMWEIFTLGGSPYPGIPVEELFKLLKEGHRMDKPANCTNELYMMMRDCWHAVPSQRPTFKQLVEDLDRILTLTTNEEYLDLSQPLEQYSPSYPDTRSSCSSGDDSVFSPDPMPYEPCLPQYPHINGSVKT
Serine/threonine-protein kinase Nek4 (Homo sapiens), sequence (P51957 whole entry, looked up): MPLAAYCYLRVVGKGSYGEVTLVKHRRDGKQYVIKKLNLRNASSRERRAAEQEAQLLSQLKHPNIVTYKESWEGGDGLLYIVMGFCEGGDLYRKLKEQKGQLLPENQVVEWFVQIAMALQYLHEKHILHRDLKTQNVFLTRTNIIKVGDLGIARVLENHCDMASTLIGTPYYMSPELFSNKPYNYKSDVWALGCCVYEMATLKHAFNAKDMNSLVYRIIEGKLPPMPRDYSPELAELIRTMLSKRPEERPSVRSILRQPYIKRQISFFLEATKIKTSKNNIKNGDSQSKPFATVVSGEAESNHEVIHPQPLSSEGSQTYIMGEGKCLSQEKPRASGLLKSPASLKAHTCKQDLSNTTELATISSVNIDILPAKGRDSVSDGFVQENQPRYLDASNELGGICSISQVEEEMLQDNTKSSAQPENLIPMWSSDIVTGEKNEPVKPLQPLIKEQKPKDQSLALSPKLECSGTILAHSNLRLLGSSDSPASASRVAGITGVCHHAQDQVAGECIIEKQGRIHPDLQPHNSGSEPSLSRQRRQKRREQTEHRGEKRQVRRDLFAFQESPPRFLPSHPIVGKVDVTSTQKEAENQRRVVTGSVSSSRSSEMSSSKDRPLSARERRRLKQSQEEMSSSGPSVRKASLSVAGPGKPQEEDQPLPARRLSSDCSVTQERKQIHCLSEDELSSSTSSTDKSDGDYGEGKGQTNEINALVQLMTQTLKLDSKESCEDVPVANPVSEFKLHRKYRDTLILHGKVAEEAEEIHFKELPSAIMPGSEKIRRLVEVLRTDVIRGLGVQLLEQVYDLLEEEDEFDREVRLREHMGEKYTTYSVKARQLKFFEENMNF

Take `C[C@H](Nc1ncnc2nc[nH]c12)c1cc2cccc(Cl)c2c(=O)n1-c1ccccc1`: the Activity in [1] worked out at 103%; in the test listed under Homo sapiens [2], 101%; in [3] it was 97%; in test [4], 102%; in test [5] it was 93.9%; in test [6] it was 97.1%. Besides, the Activity in [7] was determined as 103%; in test [8], 96.5%; in [9] it was 90.1%; in test [10], 92.2%; in the test listed under Homo sapiens [11], 95.5%; in test [12] it was 106%. Also, the Activity was 116% in [13], 100% in test [14] and 107% in [15].

As to `CC[C@H](Nc1ncnc2[nH]cnc12)c1nc2cccc(F)c2c(=O)n1-c1ccccc1`, the Activity in test [1] amounted to 103%; in the test filed under Homo sapiens [2] it was 100%; in [3], 96.5%; in test [4], 97.4%; in test [5], 95.8%; in test [6], 93%. For the same compound, the Activity in test [7] is 102%; in test [8], 96.2%; in [9] it was 84.5%; in [10] it was 95.5%; in the test listed under Homo sapiens [11], 102%; in [12] it was 105%. Also, the Activity in test [13] turned out to be 120%; in test [14], 103%; in [15], 99.3%.

As to `CC(C)Oc1ccc(-c2nn([C@@H](C)c3oc4ccc(F)cc4c(=O)c3-c3cccc(F)c3)c3ncnc(N)c23)cc1F` [UMBRALISIB], the Activity stood at 110% in test [1]; 104% in the test listed under Homo sapiens [2]; 97.7% in [3]; 104% in [4]; 97.8% in test [5]; 97.1% in [6]. The Activity in [7] was determined as 101%; in [8] it was 91.4%; in test [9], 84.8%; in test [10] it was 87.8%; in the test listed under Homo sapiens [11] it was 91.4%; in [12] it was 108%. Moreover, the figures for the Activity in test [13], in test [14] and in [15] were 114%, 102% and 103%, respectively.

For the origin of these results see ChEMBL document CHEMBL5715954, “Silencing c-Myc translation as a therapeutic strategy through targeting PI3Kδ and CK1ε in hematological malignancies” (Blood, 2017).
